Assay results reported in PubChem BioAssay AID588401 (Johns Hopkins Ion Channel Center, 2011).
Activity calls are given as the source filed them.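 Rule for the calls: active = blocks the choline transporter at some tested dose and yields a fitted dose response curve; inconclusive = no clear call, values can overlap the other calls; inactive = no blocking at any dose or no curve.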

Target: High affinity choline transporter 1 (Homo sapiens) (UniProt Q9GZV3)
Test: CHT inhibitors, dose response, cell-based, 10-point CRC, membrane potential dye (AID 588401)
Conditions: HEK293-CHT, choline-induced depolarization, at 25 µM (top of the series), cells express LV-AA mutant CHT

Sequence of High affinity choline transporter 1 (Homo sapiens) (Q9GZV3 whole entry, looked up): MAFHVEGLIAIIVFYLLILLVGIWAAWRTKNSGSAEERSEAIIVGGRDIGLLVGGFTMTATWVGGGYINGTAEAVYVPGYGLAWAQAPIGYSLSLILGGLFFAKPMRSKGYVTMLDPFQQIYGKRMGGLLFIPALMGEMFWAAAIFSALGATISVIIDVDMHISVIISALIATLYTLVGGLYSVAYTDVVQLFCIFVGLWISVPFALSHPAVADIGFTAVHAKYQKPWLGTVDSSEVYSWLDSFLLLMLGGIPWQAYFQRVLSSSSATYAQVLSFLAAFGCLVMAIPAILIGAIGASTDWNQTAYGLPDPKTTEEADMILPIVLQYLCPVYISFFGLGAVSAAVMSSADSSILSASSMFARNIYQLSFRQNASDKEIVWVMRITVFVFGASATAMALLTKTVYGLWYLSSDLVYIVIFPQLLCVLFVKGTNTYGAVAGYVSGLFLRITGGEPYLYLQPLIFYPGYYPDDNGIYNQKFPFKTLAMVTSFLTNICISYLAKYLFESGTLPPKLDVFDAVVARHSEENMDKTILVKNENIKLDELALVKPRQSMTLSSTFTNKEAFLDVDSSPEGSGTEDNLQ

SMILES	inhibition (negative values = inhibition)
Cc1ccc(C(=O)NC2CCCCC2)cc1S(=O)(=O)N1CCCC1	inactive
Cc1ccc(C(=O)NC2CCCC(C)C2C)cc1S(=O)(=O)N1CCCCC1 (stereo not given)	inactive
c1ccc(CCNc2c3c(nc4ncnn24)CCC3)cc1	inactive
C/C(=N/NC(=O)c1cc(Cl)ccc1O)C12CC3CC(CC(C3)C1)C2	inactive
O=C(Nc1ccn(Cc2ccccc2)n1)c1n[nH]c([N+](=O)[O-])c1Cl	inactive
CC1CCCCC1NC(=O)c1c(O)nc2ccccn2c1=O (stereo not given)	inactive
CCCc1ccc(OCc2ccc(C(=O)NCc3cccnc3)o2)c(OC)c1	inactive
COc1cc2c(cc1OC)-c1cc(NC3CCCCCCC3)nc(=O)n1CC2	inactive
NC(=S)N/N=C1/CCSc2ccc3ccccc3c21	inactive
CCc1ccc2oc(C(=O)NCC(c3ccc(OC)cc3)N3CCCCC3)c(C)c2c1 (stereo not given)	inactive
CC(/C=N/NC(=O)c1cc(-c2ccncc2)nc2ccccc12)=C\c1ccco1	inactive
Oc1ccc(C[C@H]2NCCc3cc(O)c(O)cc32)cc1O	inactive
CCCNc1nc2c(c(=O)n(C)c(=O)n2C)n1CCC(C)C	inactive
COc1ccc(C(=O)NC(Cc2ccc(OC(=O)c3ccc(OC)cc3)cc2)C(=O)O)cc1 (stereo not given)	inactive
Fc1ccc(NC(=S)Nc2ccc(F)c(Cl)c2)cc1Cl	inactive
COc1cccc(OC)c1OCCCCCc1c(C)n[nH]c1C	inactive
Cc1ccccc1CCNCc1cc2cccc(C)c2[nH]c1=O	inactive
COc1ccccc1Nc1nnc(SCC2CCCCO2)s1 (stereo not given)	inactive
CC1CCCCC1NC(=S)Nc1ccc(SC(F)F)cc1 (stereo not given)	inactive
COc1cc(NC(=O)c2csc(-c3ccncc3)n2)cc(C(=O)Nc2cccc(C(F)(F)F)c2)c1	inactive
CC1(C(=O)N2CCC(CC3CC(c4ccc(Cl)cc4)=NO3)(C(=O)NCC3CCCCC3)CC2)CC1 (stereo not given)	inactive
CC(SCc1ccccc1)C(=O)N/N=C/c1ccc(OCC(=O)NCc2ccco2)cc1 (stereo not given)	inactive
C=C(C)CSc1nnc(CCCCCNC(=O)OC(C)(C)C)o1	inactive
Cc1cc(Cl)ccc1OCCCC(=O)N1CCN(C(=O)c2ccco2)CC1	inactive
COc1cc(/C=C2/C(=O)ON=C2c2ccccc2)ccc1O	inactive
O=[N+]([O-])c1ccc(S(=O)(=O)Nc2nc(-c3ccccc3)cs2)cc1	inactive
CCOC(=O)c1c(NC(=O)C2C3C=CC(C3)C2C(=O)O)sc2c1CCC(CC)C2 (stereo not given)	inactive
O=C(C1CCCN(c2ncnc3c2nc2n3CCCCC2)C1)N1CCN(c2ccc(Cl)cc2)CC1 (stereo not given)	inactive
CCCCc1cc(O)c(CCCC)c(O)c1	inactive
Cc1ccccc1-n1c(C)cc(/C=N/NC(=O)c2ccc(CN3CCOCC3)cc2)c1C	inactive

Second part, the compound after the results:

inhibition (negative values = inhibition)	SMILES
inactive	COc1cc(/C=C2\S/C(=N/S(=O)(=O)Cc3ccccc3)NC2=O)c([N+](=O)[O-])cc1OC
inactive	CC1(C)CC(=O)C=C(Nc2cccc(Cl)c2Cl)C1
inactive	N=c1n(Cc2ccccc2)c2ccccc2n1CC(O)COc1ccccc1 (stereo not given)
inactive	O=C(c1c(O)c2ccccc2oc1=O)C1CCCCC1
inactive	Cc1cccc(C(=O)Nc2cccc(OCC(=O)O)c2)c1
inactive	Cc1ccc(C)c(OCC(=O)Nc2ccc(S(=O)(=O)Nc3ccccn3)cc2)c1C
inactive	Cc1nn(-c2ccccc2)c2[nH]c(=O)cc(C(F)(F)F)c12
inactive	COc1cccc(/C=C2\SC(=S)N(NS(=O)(=O)c3ccccc3)C2=O)c1OC
inactive	CCN1CCN(CCNC(=O)c2ccc3nc(-c4cccc(C)c4)c(-c4cccc(C)c4)nc3c2)CC1
inactive	CC1(C)CC2CC(C)(CN2c2ncnc3ccccc23)C1 (stereo not given)
inactive	CCN1CCn2c3c(c4cc(Cl)ccc42)CCCC31 (stereo not given)
inactive	O=C(NC1CCCCC1)C(c1ccc2ncccc2c1)N(Cc1ccccc1)C(=O)c1ccc2c(c1)OCCO2 (stereo not given)
inactive	CC(C)(C)S(=O)(=O)/C(C#N)=N/Nc1ccc(Cl)cc1
inactive	O=C(c1ccc(Cl)c(S(=O)(=O)N2CCCC2)c1)N1CCN(c2ccccc2)CC1
inactive	CCS(=O)(=O)C1=NN2C(=N)/C(=C\c3ccc(OS(=O)(=O)c4ccccc4)cc3)C(=O)N=C2S1
inactive	COC(=O)/C(=C/c1c[nH]c2ccccc12)[N+](=O)[O-]

inhibition (negative values = inhibition)	SMILES
inactive	CC(Oc1ccccc1Cl)C(=O)Nc1ccc(S(=O)(=O)Nc2nccs2)cc1 (stereo not given)
inactive	C[C@H](NC(=O)OC(C)(C)C)c1nnc(SCC(=O)c2ccc(Cl)cc2)o1
inactive	COc1ccc(C2=Nn3c(nnc3C3CCCCC3)SC2)cc1OC
inactive	Cc1c(C(=O)OC(C)C)sc(NC(=O)c2cccnc2)c1C#N
inactive	CCN(CC(=O)Nc1cccc(OC)c1)c1ncnc2sc(C)c(C)c12
inactive	COc1cc(CNc2ccc(N3CCCCC3)cc2)ccc1OCC(=O)NC(C)(C)C
inactive	CCCOc1ccc(C(CC(=O)O)NC(=O)c2sc3ccccc3c2Cl)cc1 (stereo not given)
inactive	Cc1cc(OC(C)C(=O)Nc2ccc(S(=O)(=O)Nc3onc(C)c3C)cc2)cc(C)c1Cl (stereo not given)
inactive	COc1ccc(C/C(O)=C(\C#N)c2nc3ccccc3s2)cc1
inactive	Cc1cc(CN(C)C(=O)c2cc(COc3ccc(F)cc3Cl)on2)n[nH]1
inactive	Cc1ccc(N2NC(=O)/C(=C\c3cc4c(cc3[N+](=O)[O-])OCO4)C2=O)cc1C
inactive	CN(C)CCCn1c(=O)n(C2CCCCC2)c(=O)c2c3c(sc21)CCCCC3
inactive	CCCn1nc2cc(C(=O)NCc3ccc(C)cc3)ccc2c1OCC
inactive	CCN(Cc1ccccc1)S(=O)(=O)c1cc(C(=O)NC2CCCCCC2)ccc1OC
inactive	O=C(N/N=C/c1ccsc1)c1c[nH]c2ccccc12
inactive	Cc1noc(NS(=O)(=O)c2ccc(NC(=O)COc3ccc(Cl)cc3Cl)cc2)c1C

Same assay, conditions: HEK293-CHT, choline-induced depolarization, cells express LV-AA mutant CHT

SMILES	IC50 [µM]
Cc1ccc(NC(=O)c2ccc(CN3CC(=O)N4CCCCC4C3=O)cc2)c(C)c1 (stereo not given)	4.47
CCCn1nc(NS(=O)(=O)c2cccc3nonc23)c2cc3cccc(C)c3nc21	3.55
CC(C)c1nnc(NC(=O)c2nc(S(=O)(=O)Cc3ccccc3)ncc2Cl)s1	4.47
